The source of these data is paper PMC2880318 (Immunome Research, 2010).

Structures are written as SMILES. Where a SMILES comes first, the peptide text is derived from it.

For the assay, the target named is purified HLA-DRB1*0101 (Homo sapiens, UniProt P01903+P01911, A100R/D57E/F55L/F60I/F76Y/I96L/L162R/M171V/P40L/Q125E/R42F/V115G/Y59C). Briefly: biochemical. Type of assay: binding.

As usually defined, the IC50 is the point on the concentration scale where inhibition reaches its midpoint. High values mean weaker potency, low ones greater potency. `CC[C@H](C)[C@H](NC(=O)[C@H](Cc1c[nH]c2ccccc12)NC(=O)[C@H](CC(=O)O)NC(=O)[C@H](Cc1ccccc1)NC(=O)[C@H](CCC(=O)O)NC(=O)[C@@H]1CCCN1C(=O)[C@H](CO)NC(=O)CNC(=O)[C@@H](N)CCCCN)C(=O)N[C@@H](CC(C)C)C(=O)NCC(=O)N[C@@H](Cc1c[nH]c2ccccc12)C(=O)N[C@H](C(=O)N[C@H](C(=O)N[C@@H](CCCCN)C(=O)O)[C@@H](C)CC)[C@@H](C)O` [GTOV GPC131-145] (H-KGSPEFDWILGWTIK-OH) returned an IC50 of 1.7 nM.
Molecule `CC[C@H](C)[C@H](NC(=O)[C@H](CC(C)C)NC(=O)[C@H](CCCNC(=N)N)NC(=O)[C@H](Cc1c[nH]cn1)NC(=O)[C@H](Cc1ccc(O)cc1)NC(=O)[C@H](CCC(=O)O)NC(=O)[C@H](CCC(N)=O)NC(=O)[C@@H](N)CC(=O)O)C(=O)N[C@@H](Cc1c[nH]cn1)C(=O)N[C@@H](CO)C(=O)N[C@@H](CC(C)C)C(=O)N[C@@H](CO)C(=O)N[C@@H](CCCCN)C(=O)N[C@H](C(=O)N[C@@H](CO)C(=O)O)[C@@H](C)O` [GTOV L181-195] (H-DQEYHRLIHSLSKTS-OH) displayed an IC50 of 0.34 nM.
In turn, `CC[C@H](C)[C@H](NC(=O)[C@H](CC(=O)O)NC(=O)[C@H](CC(C)C)NC(=O)[C@@H](NC(=O)[C@@H](N)CCCNC(=N)N)C(C)C)C(=O)N[C@@H](CC(C)C)C(=O)N[C@H](C(=O)N[C@@H](C)C(=O)N[C@@H](CCCNC(=N)N)C(=O)N[C@@H](CCCNC(=N)N)C(=O)N[C@@H](CC(C)C)C(=O)N[C@@H](CC(C)C)C(=O)N[C@@H](CC(C)C)C(=O)N[C@@H](CCCCN)C(=O)N[C@@H](CCCCN)C(=O)O)C(C)C` [GTOV L391-405] (H-RVLDILVARRLLLKK-OH) showed an IC50 of 0.19 nM.
In turn, `CC[C@H](C)[C@H](N)C(=O)N[C@@H](CCC(N)=O)C(=O)N[C@@H](CC(C)C)C(=O)N[C@H](C(=O)N[C@@H](Cc1ccccc1)C(=O)N[C@@H](CO)C(=O)N[C@@H](CO)C(=O)N[C@@H](CCSC)C(=O)N[C@H](C(=O)N[C@@H](CC(N)=O)C(=O)N1CCC[C@H]1C(=O)N[C@@H](CC(C)C)C(=O)N[C@H](C(=O)N[C@H](C(=O)N[C@H](C(=O)O)[C@@H](C)O)[C@@H](C)CC)C(C)C)[C@@H](C)CC)C(C)C` [GTOV L1826-1840] (H-IQLVFSSMINPLVIT-OH) registered an IC50 of 0.23 nM.
Molecule `CC[C@H](C)[C@H](NC(=O)[C@@H](NC(=O)[C@H](CC(C)C)NC(=O)[C@H](C)NC(=O)[C@@H]1CCCN1C(=O)[C@H](CCSC)NC(=O)[C@H](CO)NC(=O)CNC(=O)[C@H](Cc1ccccc1)NC(=O)[C@H](CCC(N)=O)NC(=O)[C@H](CC(N)=O)NC(=O)[C@H](CC(N)=O)NC(=O)[C@H](CC(C)C)NC(=O)[C@@H](N)CCCCN)[C@@H](C)O)C(=O)N[C@@H](C)C(=O)O` [GTOV NP166-180] came in with an IC50 of 0.12 nM.
Turning to `CC(C)C[C@H](NC(=O)CNC(=O)[C@H](CC(C)C)NC(=O)[C@H](CO)NC(=O)[C@@H](NC(=O)[C@H](CC(C)C)NC(=O)[C@H](C)NC(=O)[C@H](CCC(N)=O)NC(=O)[C@@H](NC(=O)[C@@H](NC(=O)[C@H](CC(N)=O)NC(=O)[C@@H](N)CC(N)=O)C(C)C)C(C)C)[C@@H](C)O)C(=O)N[C@@H](CC(C)C)C(=O)N[C@@H](Cc1ccc(O)cc1)C(=O)N[C@H](C(=O)O)[C@@H](C)O` [GTOV NP191-205], the IC50 stood at 0.29 nM.
Molecule `CC[C@H](C)[C@H](N)C(=O)N[C@@H](CO)C(=O)NCC(=O)N[C@@H](Cc1ccc(O)cc1)C(=O)N[C@@H](CC(N)=O)C(=O)N[C@@H](Cc1ccccc1)C(=O)N[C@@H](CO)C(=O)N[C@@H](CC(C)C)C(=O)N[C@@H](CO)C(=O)N[C@@H](C)C(=O)N[C@@H](C)C(=O)N[C@H](C(=O)N[C@@H](CCCCN)C(=O)N[C@@H](C)C(=O)NCC(=O)O)C(C)C` [GTOV NP236-250] registered an IC50 of 0.12 nM.
For the molecule `CC[C@H](C)[C@H](N)C(=O)N1CCC[C@H]1C(=O)N[C@H](C(=O)N[C@@H](CCC(N)=O)C(=O)N[C@@H](CC(C)C)C(=O)N[C@@H](CC(C)C)C(=O)N1CCC[C@H]1C(=O)N[C@@H](CC(N)=O)C(=O)N[C@H](C(=O)N[C@@H](CC(C)C)C(=O)N[C@H](C(=O)N[C@@H](Cc1ccccc1)C(=O)N[C@@H](CCC(N)=O)C(=O)N[C@@H](C)C(=O)N[C@@H](CCCCN)C(=O)O)C(C)C)[C@@H](C)O)[C@@H](C)CC` [GTOV NP541-555] (H-IPIQLLPNTLVFQAK-OH), the IC50 was determined as 0.25 nM.
In the case of `CC(C)C[C@H](NC(=O)[C@H](C)NC(=O)[C@H](CC(C)C)NC(=O)[C@H](Cc1ccccc1)NC(=O)[C@@H](NC(=O)[C@H](Cc1ccccc1)NC(=O)[C@@H](N)Cc1ccccc1)C(C)C)C(=O)N[C@@H](C)C(=O)NCC(=O)N[C@@H](CCCNC(=N)N)C(=O)N[C@@H](CO)C(=O)N[C@@H](CS)C(=O)N[C@H](C(=O)N[C@@H](CCC(=O)O)C(=O)N[C@@H](CCC(=O)O)C(=O)O)[C@@H](C)O` [JUNV GPC46-60], the IC50 came to 0.23 nM.
`CC[C@H](C)[C@H](NC(=O)[C@H](CC(=O)O)NC(=O)[C@H](CC(C)C)NC(=O)[C@H](CC(C)C)NC(=O)[C@H](CCCNC(=N)N)NC(=O)[C@H](CC(=O)O)NC(=O)[C@H](CC(N)=O)NC(=O)[C@@H](NC(=O)[C@H](CC(C)C)NC(=O)[C@H](CCSC)NC(=O)[C@H](CC(C)C)NC(=O)[C@H](CCSC)NC(=O)[C@H](CCC(N)=O)NC(=O)CNC(=O)[C@@H](N)C(C)C)C(C)C)C(=O)O` [JUNV L381-395]: the concentration for half-maximal inhibition (IC50) came to 0.21 nM.
`CC[C@H](C)[C@H](NC(=O)[C@H](C)NC(=O)[C@H](CCC(=O)O)NC(=O)[C@H](CC(C)C)NC(=O)[C@@H](NC(=O)[C@H](CC(=O)O)NC(=O)[C@H](CC(C)C)NC(=O)[C@H](CC(C)C)NC(=O)[C@@H](N)CCCNC(=N)N)[C@@H](C)CC)C(=O)N[C@@H](CCCCN)C(=O)N[C@@H](CC(C)C)C(=O)N[C@H](C(=O)N[C@@H](CCCNC(=N)N)C(=O)N[C@@H](CCCCN)C(=O)N[C@@H](CCCCN)C(=O)O)[C@@H](C)CC` [JUNV L391-405] came in with an IC50 of 0.48 nM.
`CSCC[C@H](NC(=O)[C@H](CCC(N)=O)NC(=O)[C@@H](NC(=O)[C@H](Cc1c[nH]c2ccccc12)NC(=O)[C@@H](N)CCCCN)C(C)C)C(=O)N[C@@H](CS)C(=O)N[C@@H](CO)C(=O)N[C@@H](CCCNC(=N)N)C(=O)N[C@H](C(=O)N[C@@H](CC(C)C)C(=O)N[C@@H](CCCCN)C(=O)N[C@@H](CC(N)=O)C(=O)N[C@@H](CO)C(=O)N[C@@H](Cc1c[nH]cn1)C(=O)N[C@@H](CCC(N)=O)C(=O)O)[C@@H](C)O` [JUNV L411-425]: it took 1.1 nM to reach half-maximal inhibition (IC50).
`CC[C@H](C)[C@H](NC(=O)[C@H](CC(=O)O)NC(=O)[C@H](CC(N)=O)NC(=O)[C@H](Cc1ccccc1)NC(=O)[C@@H](NC(=O)[C@H](CCCCN)NC(=O)[C@H](CCCNC(=N)N)NC(=O)[C@H](C)NC(=O)[C@H](CS)NC(=O)[C@H](CC(N)=O)NC(=O)[C@H](CCCNC(=N)N)NC(=O)[C@@H](NC(=O)[C@H](Cc1ccccc1)NC(=O)[C@@H](N)CCSC)[C@@H](C)CC)C(C)C)C(=O)N[C@@H](CCCCN)C(=O)O` [JUNV L1491-1505] had a concentration for half-maximal inhibition (IC50) of 2 nM.
`CC(C)[C@H](NC(=O)[C@H](C)NC(=O)[C@H](CCCCN)NC(=O)[C@@H]1CCCN1C(=O)[C@H](CCCCN)NC(=O)[C@@H](NC(=O)[C@H](C)NC(=O)[C@H](Cc1c[nH]c2ccccc12)NC(=O)[C@H](Cc1ccccc1)NC(=O)[C@H](Cc1ccccc1)NC(=O)[C@H](CC(N)=O)NC(=O)[C@H](CCCCN)NC(=O)[C@@H](N)CC(N)=O)C(C)C)C(=O)N[C@@H](CCCNC(=N)N)C(=O)N[C@@H](CCC(N)=O)C(=O)O` [JUNV L1711-1725] displayed an IC50 of 0.06 nM.
